These results are taken from patent US20260078111A1, “CARBONIC ANHYDRASE ENZYME INHIBITORS AND METHODS OF USE THEREOF” (RUTGERS, THE STATE UNIVERSITY OF NEW JERSEY, priority 2022, published 2026).

Assay [1] has as its system mast cell development from murine bone marrow cells. The assay can be described thus: In vitro mast cell development culture assay (IL-3, flow cytometry). As to conditions: for inhibition at 15 µM: Table 3, read-out: POI (percent of inhibition based on MC numbers). Format: cell-based, mice. The procedure: To further test the ability of 4-(3-hydroxy-1-(4-methoxybenzyl)-2-oxoindolin-3-yl)benzenesulfonamide to inhibit mast cell development, an established mast cell culture assay was employed (Henry, E. K., et al., J Exp Med, 2016. 213(9): p. 1663-73). As a positive control for mast cell development, bone marrow cells were isolated from the femur of mice and cultured in the presence of 10 ng/mL of IL-3 and vehicle (1:10, DMSO/RPMI complete media) for seven days and mast cells were identified by flow cytometric analysis as (c-Kit+ FceRIa+ CD49b− cells).
In vitro Mast Cell development: Briefly, 1×10^6 bone marrow-resident progenitor cells were isolated from the femur of mice and cultured in complete media supplemented with 10 ng/mL of rIL-3 for a period of […]. Mast cells were identified by their expression of the surface molecules FcεRIα and c-Kit via flow cytometric analysis. In addition to IL-3, cultures were treated with vehicle or increasing concentrations of Car enzyme inhibitors at the indicated concentrations.
A general note: A flow cytometer gives signals particle by particle.

Assay [2] has as its system intestinal mast cell responses. The assay can be described thus: Trichinella spiralis-induced mastocytosis model. Format: in vivo. As to conditions: 2 mg/day i.p., T. spiralis-infected mice, day 10 post-infection. The text has this: To address this, a model of Trichinella spiralis-induced mastocytosis was employed and the capacity of MZ and 4-(3-hydroxy-1-(4-methoxybenzyl)-2-oxoindolin-3-yl)benzenesulfonamide to inhibit intestinal mast cell responses was directly compared (Henry, E. K., et al., J Exp Med, 2016. 213(9): p. 1663-73). Briefly, mice were infected with T. spiralis and treated with either vehicle, MZ or 4-(3-hydroxy-1-(4-methoxybenzyl)-2-oxoindolin-3-yl)benzenesulfonamide and intestinal mast cells were quantified via esterase staining and histological analysis (Henry, E. K., et al., J Exp Med, 2016. 213(9): p. 1663-73).
Trichinella spiralis infection: Mice were infected with 500 T. spiralis muscle stage larvae by oral gavage and were treated with vehicle (1:5, DMSO/PBS), 2 mg MZ, or 2 mg 4-(3-hydroxy-1-(4-methoxybenzyl)-2-oxoindolin-3-yl)benzenesulfonamide (CAR0037) i.p. daily; mice were sacrificed between on day 10-post infection and mast cell responses in the small intestine were evaluated by esterase staining as described previously (Henry, E. K., et al., J Exp Med, 2016. 213(9): p. 1663-73).

In a further assay the target is recombinant human Car1 (Homo sapiens, UniProt P00915). Briefly: Stopped-flow assay of Car1 enzyme inhibition (IC50). Format: biochemical. The method, then: Stopped-flow: IC50 values were established using an SX20 stopped-flow spectrometer from […]. In one syringe of the SX20, recombinant human Car1 was kept at a concentration of 9 μM in a sodium phosphate buffer and inhibitors were added to this solution at 0 nM, 10 nM, 20 nM, 80 nM and 100 nM. In a second syringe, a saturated CO2 solution was mixed with 0.2 mM phenol red. This series of dilutions allow for the evaluation of how quickly Car1 can metabolize the CO2 in the absence of an inhibitor and for the determination of whether that process is inhibited as increasing concentrations of compounds are added.

What is called inhibition is the percentage by which the read-out fell short of the control. A word on the IC50: it is the concentration needed to halve the response being measured.

Sequence of recombinant human Car1 (P00915 whole entry): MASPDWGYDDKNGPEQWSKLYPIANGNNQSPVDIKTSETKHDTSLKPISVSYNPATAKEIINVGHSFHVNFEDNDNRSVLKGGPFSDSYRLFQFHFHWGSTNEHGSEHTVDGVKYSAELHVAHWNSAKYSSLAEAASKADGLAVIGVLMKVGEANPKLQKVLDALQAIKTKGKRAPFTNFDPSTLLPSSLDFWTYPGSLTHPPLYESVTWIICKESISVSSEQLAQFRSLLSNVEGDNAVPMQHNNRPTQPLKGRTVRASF

On to `CC(=O)/N=c1/sc(S(N)(=O)=O)nn1C` [MZ, methazolamide, reference compound], for which the mast cell numbers result in assay [1] (30 μg/mL (126.97 uM), IL-3 10 ng/mL, seven days) is listed as “significantly decreased mast cell numbers”. Further, the inhibition at 126 µM in assay [1] (Mus musculus, Mast cell, read-out: POI of control (percent of inhibition based on MC numbers)) fell in the range of 78 to 100%. In addition, the “intestinal mast cell responses post-infection (esterase staining)” value in assay [2] is given as “no changes in mast cell responses”.

With `NS(=O)(=O)c1ccc(C2(O)C(=O)N(Cc3ccc(N4CCOCC4)cc3)c3ccccc32)cc1` (centres unmarked) [NEM-14A, 4-[3-hydroxy-1-[(4-morpholinophenyl)methyl]-2-oxo-indolin-3-yl]benzenesulfonamide], the “inhibition of mast cell numbers (POI) compared to MZ at 126 uM” value is on record as “comparable inhibition of mast cell numbers with the control, MZ, at 126 uM” in assay [1] (10 uM) and “significantly higher inhibition than MZ at 126 uM” in assay [1] (15 uM). In addition, the inhibition at 15 µM in assay [1] (Mus musculus, Mast cell) is 98%. Further, the IC50 at recombinant human Car1 worked out at 34 nM.

On to `NS(=O)(=O)c1ccc(C2(O)C(=O)N(Cc3cc[n+]([O-])cc3)c3ccccc32)cc1` (centres unmarked) [NEM-10A, 4-[3-hydroxy-1-[(1-oxidopyridin-1-ium-4-yl)methyl]-2-oxo-indolin-3-yl]benzenesulfonamide], for which the inhibition at 15 µM in assay [1] (Mus musculus, Mast cell) is 11%. The IC50 on recombinant human Car1 was found to be 33.8 nM.

As to `NS(=O)(=O)c1ccc(C2(O)C(=O)N(Cc3ccc(F)c(F)c3)c3ccccc32)cc1` (centres unmarked) [NEM-9A, 4-[1-[(3,4-difluorophenyl)methyl]-3-hydroxy-2-oxo-indolin-3-yl]benzenesulfonamide], the inhibition at 15 µM in assay [1] (Mus musculus, Mast cell) was found to be 18%. The IC50 at recombinant human Car1 stood at 51.3 nM.

With `NS(=O)(=O)c1ccc(C2(O)C(=O)N(CC3CCOCC3)c3ccccc32)cc1` (centres unmarked) [NEM-12A, 4-[3-hydroxy-2-oxo-1-(tetrahydropyran-4-ylmethyl)indolin-3-yl]benzenesulfonamide], the inhibition at 15 µM in assay [1] (Mus musculus, Mast cell) is 6%. Also, the IC50 at recombinant human Car1 worked out at 62.5 nM.

In the case of `NS(=O)(=O)c1ccc(C2(O)C(=O)N(Cc3ccc(-c4ccncc4)cc3)c3ccccc32)cc1` (centres unmarked) [NEM-23A, 4-[3-hydroxy-2-oxo-1-[[4-(4-pyridyl)phenyl]methyl]indolin-3-yl]benzenesulfonamide], in assay [1] (100 nM, titration, FIG. 3), the “inhibition of mast cell numbers” value is reported as “inhibits mast cell numbers”. In addition, the “inhibition of mast cell numbers (POI) compared to MZ at 126 uM” value in assay [1] (5 uM), in assay [1] (10 uM) and in assay [1] (15 uM) was “comparable level than MZ at 126 uM” throughout. Moreover, in assay [1] (Mus musculus, Mast cell, 250 nM, titration, FIG. 3, read-out: inhibition of mast cell numbers), the inhibition at 0.25 µM is around 50%. In addition, the inhibition at 15 µM in assay [1] (Mus musculus, Mast cell) came to 99%. Further, at recombinant human Car1, the half-maximal inhibitory concentration (IC50) came out at 77 nM.

With `COc1ccc(CN2C(=O)C(O)(c3ccc(S(N)(=O)=O)cc3)c3ccccc32)cc1` (centres unmarked) [CAR0037, 4-(3-hydroxy-1-(4-methoxybenzyl)-2-oxoindolin-3-yl)benzenesulfonamide], the “inhibition of mast cell development compared to MZ” value in assay [1] (10 uM, IL-3 10 ng/mL, seven days, versus 126.97 uM MZ) is “inhibited mast cell development as effectively as 126.97 uM of MZ”. Also, the IC50 on recombinant human Car1 was found to be 0.044 nM. In assay [2], the “intestinal mast cell responses post-infection (esterase staining)” value is listed as “significantly decreased intestinal mast cell numbers”.
